According to patent US6060608A, “Analogs of CC-1065 and the duocarmycins” (The Scripps Research Institute, priority 1999, dated 2000):
Values joined by “and” are separate entries in the source; they are usually repeats but may differ in a detail not shown here. Equal values may be shown once. “Also recorded” adds a separate entry of the source.

Assays:
[1] = tested on: w794 DNA, 5'-AATTA high affinity site; test: Relative rate of DNA alkylation at the w794 5'-AATTA high affinity site; format: biochemical, SV40; conditions: 10^-6 M, 25° C.
Description: Rate of DNA Alkylation. The relative rates of DNA alkylation for the natural enantiommers of CCBI-TMI (35) and CCBI-indole2 (37) versus those of the corresponding CBI and MCBI agents were measured at the single high affinity site in w794, 5'-AATTA. The relative rates earlier studies of DNA alkylation for MCBI-TMI, CBI-TMI, and duocarmycin SA were determined to be quite similar at 4° C., 1.8:1.0:0.9, respectively. […] In prior studies, we have highlighted similar observations with agents that span a much larger range of relative reactivities.
The DNA alkylation selectivity and efficiency of the natural enantiomers of 304-307 were compared with that of 1 in w794 DNA. […] These trends in the overall efficiency of DNA alkylation parallel the relative trends in cytotoxic potency.
(§1) DNA Alkylation Relative Rate of (+)-CCBI-TMI (35), (+)-CBI-TMI, and (+)-MCBI-TMI. Following the procedure detailed above, Eppendorf tubes containing 5' end-labeled w794 DNA (9 μL) in TE buffer (pH 7.5) were treated with (+)-CCBI-TMI (35), (+)-CBI-TMI, or (+)-MCBI-TMI (1 μL, 10^-6 M in DMSO). The solutions were mixed and incubated at 25° C. for 2, 4, 6, 9, 12, 15, and 24 h, respectively. Subsequent isolation of the alkylated DNA by EtOH precipitation, resuspension in TE buffer (10 μL, pH 7.5), thermolysis (30 min, 100° C.), PAGE, and autoradiography were conducted as detailed above. Relative rates for alkylation at the w794 high-affinity 5'-AATTA site were derived from the slopes of the plots of percent integrated optical density (IOD) of the high-affinity alkylation cleavage bands versus time.
as §1, with “(+)-CCBI-indole2 (37), (+)-CBI-indole2,” for “(+)-CCBI-TMI (35), (+)-CBI-TMI,”, “(+)-MCBI-indole2.” for “(+)-MCBI-TMI.”, “(+)-CCBI-indole2 (37), (+)-CBI-indole2, and (+)-MCBI-indole2” for “(+)-CCBI-TMI (35), (+)-CBI-TMI, or (+)-MCBI-TMI”

[2] = tested on: w794 DNA, 5'-AATTA high affinity site; conditions: 4° C., earlier studies, 1.8:1.0:0.9; cited from earlier work
[3] = in vivo; cited from earlier work
calf thymus DNA = test: DNA alkylation of calf thymus DNA, recovery of unreacted agent; format: biochemical; conditions: 37° C., 48-72 h, 1:51 agent:base-pair ratio
Description: DNA Alkylation of Calf Thymus DNA. An aliquot of agent (5 μL, 0.01 M in DMSO) was added to a calf thymus DNA solution (0.45 mL, 3.79 mg/mL, 10 mM sodium phosphate, pH 7.0, base-pair:agent=51:1). The DNA-agent mixtures were incubated at 37° C. for 72 h for both enantiomers of 105, 106 and 107 or at 37° C. for 48 h for 108, 109, 110 and 111. For both enantiomers of 105, 106, 108 and 110, the unreacted materials were extracted with EtOAc (0.5 mL×4). The combined extracts were dried and dissolved in EtOAc (0.9 mL) and the quantities of 105, 106, 108, and 110 were determined by UV. Additional extraction with EtOAc (0.5 mL×4) was carried out, and the amounts of combined material were determined by UV. No additional material was recovered. For the ionic agents 107, 109 and 111, the unreacted materials were recovered from the supernatants of EtOH precipitation of the DNA. The EtOH in the supernatant was removed by a stream of N2. The supernatants were diluted to 0.9 mL with H2 O and the recovered quantities of 107, 109, and 111 were determined by UV.
These studies were conducted alongside control reactions conducted in the absence of DNA. An aliquot of agent (5 μL, 0.01 M in DMSO) was added to sodium phosphate buffer (0.45 mL, 10 mM, pH 7.0). The agent-buffer mixtures were incubated at 37° C. for 72 h for both enantiomers of 105, 106 and 107 or at 37° C. for 48 h for 108, 109, 110 and 111. For 105, 106, 108 and 110, the materials were extracted with EtOAc (0.5 mL×4). The combined extracts were dried and dissolved in EtOAc (0.9 mL) and the agent quantities were determined by UV. For the ionic agents 107, 109 and 111, the agent-buffer mixtures were diluted to 0.9 mL with H2 O and their quantities were determined by UV.

L1210 = test: In vitro cytotoxic activity, L1210; conditions: L1210
w794 duplex DNA = test: DNA alkylation selectivity and efficiency within w794 DNA, thermally-induced strand cleavage and PAGE; format: biochemical, SV40; conditions: for DNA alkylation, failure to alkylate: 105-107: 37° C., 72 h, up to 10^-2 M, 108 and 110: 10^-3 M or lower
Text: DNA Alkylation Selectivity and Efficiency. The DNA alkylation properties of the agents were examined within w794 duplex DNA, a 144 base-pair segment of duplex DNA for which comparative results are available for related agents. The alkylation site identification and the assessment of the relative selectivity among the available sites were obtained by thermally-induced strand cleavage of the singly 5' end-labeled duplex DNA after exposure to the agents. Following treatment of the end-labeled duplex DNA with a range of agent concentrations, the unbound agent was removed by EtOH precipitation of the DNA. Redissolution of the DNA in aqueous buffer, thermolysis (100° C., 30 min) to induce strand cleavage at the sites of DNA alkylation, denaturing high resolution polyacrylamide gel electrophoresis (PAGE) adjacent to Sanger dideoxynucleotide sequencing standards, and autoradiography led to identification of the DNA cleavage and alkylation sites. The DNA alkylation reaction selectivities observed under the incubation conditions for the agents detailed herein have proven identical to the alkylation selectivities observed with shorter or extended reaction periods or when the reactions were conducted at different temperatures (37 or 4° C., 0.5-7 d). As discussed below, the rates and efficiencies but not final relative efficiencies of DNA alkylation were altered by changing the reaction temperatures.
DNA Alkylation Properties. […] The DNA alkylation reaction was examined within w794 DNA for which comparative results are available for past agents. The alkylation site identification was obtained by thermal strand cleavage of the singly 5' end-labeled duplex DNA after exposure to the agents. Following treatment of the labeled DNA with a range of agent concentrations, the unbound agent was removed by EtOH precipitation of the DNA. Redissolution of the DNA in aqueous buffer, thermolysis at 100° C. (30 min) to induce depurination and strand cleavage at the adenine N3 or guanine N3 minor groove alkylation sites, denaturing high resolution PAGE adjacent to Sanger sequencing standards and autoradiography provided the DNA cleavage and alkylation sites.
DNA Alkylation Studies: selectivity and Efficiency. General procedures, the preparation of singly ^32 P 5' end-labeled double stranded DNA, the agent binding studies, gel electrophoresis, and autoradiography were conducted according to standard procedures. Eppendorf tubes containing the 5' end-labeled DNA (9 μL) in TE buffer (10 mM Tris, 1 mM EDTA, pH 7.5) were treated with the agent in DMSO (1 μL at the specified concentration). The solution was mixed by vortexing and brief centrifugation and subsequently incubated at 4 or 25° C. for 24 h (natural enantiomers) and 25 or 37° C. (unnatural enantiomers) for 72 h. The covalently modified DNA was separated from unbound agent by EtOH precipitation and resuspended in TE buffer (10 μL). The solution of DNA in an Eppendorf tube sealed with parafilm was warmed at 100° C. for 30 min to induce cleavage at the alkylation sites, allowed to cool to 25° C. and centrifuged. Formamide dye (0.03% xylene cyanol FF, 0.03% bromophenol blue, 8.7% Na2 EDTA 250 mM) was added (5 μL) to the supernatant. Prior to electrophoresis, the sample was denatured by warming at 100° C. for 5 min, placed in an icebath, and centrifuged, and the supernatant (3 μL) was loaded directly onto the gel. Sanger dideoxynucleotide sequencing reactions were run as standards adjacent to the reaction samples. Polyacrylamide gel electrophoresis (PAGE) was run on an 8% sequencing gel under denaturing conditions (8 M urea) in TBE buffer (100 mM Tris, 100 mM boric acid, 0.2 mM Na2 EDTA) followed by autoradiography.
DNA Alkylation of w794 DNA. Eppendorf tubes containing the 5'-end labeled DNA (9 μL) in TE buffer (10 mM Tris, 1 mM EDTA, pH 7.2) were treated with the agent in DMSO (1 μL at the specified concentration). […]

For `COc1cc2cc(C(=O)N3CC4CC45C3=CC(=O)c3ccccc35)[nH]c2c(OC)c1OC` (single isomer, unassigned) [CBI-TMI], the “relative rate of DNA alkylation, TMI series” value [1] is listed as 1.0 × and the “relative rate of DNA alkylation” value [2] is listed as 1.0.

In the case of `COc1ccc2c(c1)C13CC1CN(C(=O)c1cc4cc(OC)c(OC)c(OC)c4[nH]1)C3=CC2=O` (single isomer, unassigned) [MCBI-TMI], the “relative rate of DNA alkylation, TMI series” value [1] is given as 1.9 × and the “relative rate of DNA alkylation” value [2] is given as 1.8.

In the case of `COc1c(O)c2c(c3cc(C(=O)N4CCc5c4c(O)c(OC)c4[nH]c(C(=O)N6CC7CC78C6=CC(=O)c6[nH]cc(C)c68)cc54)[nH]c13)CCN2C(N)=O` (single isomer, unassigned) [ent-(-)-CC-1065], the “delayed toxicity” value [3] is given as “has not been observed”.

With `CSCCCNC(=O)c1csc(-c2csc(CCNC(=O)C(=O)N3CC(CCl)c4c3cc(O)c3ccccc43)n2)n1` (stereo not drawn) [compound 105, 3-[2'-(2-(2-(1-Chloromethyl-5-hydroxy-1,2-dihydro-3H-benz[e]indol-3-yl)-1,2-dioxoethyl)aminoethyl)-2,4'-bithiazole-4-carboxamido]propyl Methyl Sulfide] the “DNA alkylation of calf thymus DNA” value (calf thymus DNA) was “recovered nearly quantitatively” and the “cytotoxic potency in comparison with CBI building block or simple CBI derivatives” value (L1210) was “approached the cytotoxic potency of 114”.

For `C[S+]([O-])CCCNC(=O)c1csc(-c2csc(CCNC(=O)C(=O)N3CC(CCl)c4c3cc(O)c3ccccc43)n2)n1` (stereo not drawn) [compound 106, 3-[2'-(2-(2-(1-Chloromethyl-5-hydroxy-1,2-dihydro-3H-benz[e]indol-3-yl)-1,2-dioxoethyl)aminoethyl)-2,4'-bithiazole-4-carboxamido]propyl Methyl Sulfoxide], the “DNA alkylation of calf thymus DNA” value (calf thymus DNA) was “recovered nearly quantitatively”.

For `CSCCCNC(=O)c1csc(-c2csc(CCNC(=O)CCC(=O)N3CC(CCl)c4c3cc(O)c3ccccc43)n2)n1` (stereo not drawn) [compound 108, 3-[2'-(2-(2-(1-Chloromethyl-5-hydroxy-1,2-dihydro-3H-benz[e]indol-3-yl)-1,4-dioxobutyl)aminoethyl)-2,4'-bithiazole-4-carboxamido]propyl Methyl Sulfide], the “DNA alkylation of calf thymus DNA” value (calf thymus DNA) was “recovered nearly quantitatively” and the “DNA alkylation, failure to alkylate” value (w794 duplex DNA) was “failed to alkylate DNA at concentrations of 10^-3 M or lower; also recorded: no reaction is observed”.

In the case of `C[S+](C)CCCNC(=O)c1csc(-c2csc(CCNC(=O)CCC(=O)N3CC(CCl)c4c3cc(O)c3ccccc43)n2)n1.[I-]` (stereo not drawn) [compound 109, 3-[2'-(2-(4-(1-Chloromethyl-5-hydroxy-1,2-dihydro-3H-benz[e]indol-3-yl)-1,4-dioxobutyl)aminoethyl)-2,4'-bithiazole-4-carboxamido]propyl Dimethyl Sulfonium Iodide], the “DNA alkylation of calf thymus DNA” value (calf thymus DNA) is reported as “perceptible covalent attachment to the calf thymus DNA”, the “DNA alkylation properties, comparison in words” value (w794 duplex DNA) is reported as “only slightly more effective than 116” and the “DNA alkylation sequence selectivity” value (w794 duplex DNA) is reported as 5'-AA, 5'-TA and identical to that of N-BOC-CBI (123) and 116.

With `CSCCCNC(=O)c1csc(-c2csc(CCNC(=O)[C@@H](NC(=O)CCC(=O)N3CC(CCl)c4c3cc(O)c3ccccc43)[C@@H](C)O)n2)n1` (stereo partly drawn) [compound 110, 3-[2'-(2-((4-(1-Chloromethyl-5-hydroxy-1,2-dihydro-3H-benz[e]indol-3-yl)-1,4-dioxobutyl)-L-threonyl)aminoethyl)-2,4'-bithiazole-4-carboxamido]propyl Methyl Sulfide] the “DNA alkylation of calf thymus DNA” value (calf thymus DNA) was “recovered nearly quantitatively” and the “DNA alkylation, failure to alkylate” value (w794 duplex DNA) was “failed to alkylate DNA at concentrations of 10^-3 M or lower”.

In the case of `C[C@@H](O)[C@H](NC(=O)CCC(=O)N1CC(CCl)c2c1cc(O)c1ccccc21)C(=O)NCCc1nc(-c2nc(C(=O)NCCC[S+](C)C)cs2)cs1` (stereo partly drawn) [compound 111, 3-[2'-(2-((4-(1-Chloromethyl-5-hydroxy-1,2-dihydro-3H-benz[e]indol-3-yl)-1,4-diooxobutyl)-L-threonyl)aminoethyl)-2,4'-bithiazole-4-carboxamido]propyl Dimethyl Sulfonium Iodide], the “DNA alkylation of calf thymus DNA” value (calf thymus DNA) is reported as “perceptible covalent attachment to the calf thymus DNA”, the “DNA alkylation properties, comparison in words” value (w794 duplex DNA) is reported as “only slightly more effective than 116” and the “DNA alkylation sequence selectivity” value (w794 duplex DNA) is reported as 5'-AA, 5'-TA and identical to that of N-BOC-CBI (123) and 116.
